PubChem BioAssay (NCI)
“And” between values parts separate entries of the source, which are not always exact repeats. Equal entries are not always repeated.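 Grown in 96-well plates, cells were treated for 48 hours with each compound at five concentrations. Insufficient inhibition: endpoint recorded as highest concentration tested. GI50 = concentration required for 50% inhibition of growth. TGI is the concentration that stops growth completely.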

Experiments:
Experiment in all cases: DTP human tumour cell line panel, 48 h
A498 renal = test system: A498 renal
SF-268 CNS = test system: SF-268 CNS
LOX IMVI melanoma = test system: LOX IMVI melanoma
SF-539 CNS = test system: SF-539 CNS
OVCAR-4 ovarian = test system: OVCAR-4 ovarian
MALME-3M melanoma = test system: MALME-3M melanoma
CCRF-CEM leukemia = test system: CCRF-CEM leukemia
SW-620 colon = test system: SW-620 colon
RXF 393 renal = test system: RXF 393 renal
OVCAR-5 ovarian = test system: OVCAR-5 ovarian

Structure (SMILES)	TGI (A498 renal)	TGI (SF-268 CNS) [µM]	TGI (LOX IMVI melanoma) [µM]	TGI (SF-539 CNS)	TGI (OVCAR-4 ovarian) [µM]	TGI (MALME-3M melanoma)	TGI (CCRF-CEM leukemia) [µM]	TGI (SW-620 colon)	TGI (RXF 393 renal)	TGI (OVCAR-5 ovarian)	GI50 (A498 renal)	GI50 (SF-268 CNS) [µM]	GI50 (LOX IMVI melanoma) [µM]	GI50 (SF-539 CNS) [µM]	GI50 (OVCAR-4 ovarian) [µM]	GI50 (OVCAR-5 ovarian) [µM]	GI50 (MALME-3M melanoma) [µM]	GI50 (CCRF-CEM leukemia) [µM]	GI50 (SW-620 colon) [µM]	GI50 (RXF 393 renal) [µM]
Cc1ccc(NC(=O)NC(=O)c2ccc([N+](=O)[O-])cc2[N+](=O)[O-])cc1Oc1ncc(Cl)cn1	22.2 µM	21.8	11.9	0.91 µM	26	22.3 µM	> 62.3	12.6 µM	–	–	–	–	–	–	–	–	–	–	–	–
CC1=CC(=O)CCC2(C)C1CC[C@@H]2OC=O (stereo partly drawn)	–	> 100	> 100	> 100 µM	> 100	–	> 100	> 100 µM	> 100 µM	> 100 µM	–	–	–	–	–	–	–	–	–	–
COc1ccc(C(=O)c2ccc(OC)c(OC)c2OC)cc1	9.39 µM	> 100	> 100	8.2 µM	> 100	> 100 µM	> 100	> 100 µM	–	> 100 µM	1.08 µM	5.2	6.63	1.79	7.08	8.52	1.77	1.46	0.377	–
COc1ccc(/C=C2\CCCCC2=O)cc1	> 100 µM	> 100	> 100	> 100 µM	> 100	–	> 100	> 100 µM	–	–	–	–	–	–	–	–	–	–	–	–
CC(C)c1ccccc1NC(=O)C(=O)Cc1nc2ccccc2s1	> 100 µM	> 100	–	> 100 µM	> 100	> 100 µM	> 100	> 100 µM	> 100 µM	–	–	–	–	–	–	–	–	–	–	–
Cc1cccc(Oc2nccc(-c3c(-c4ccc(F)cc4)ncn3C3CCNCC3)n2)c1C	> 15.7 µM	> 25	> 15.1	10.4 µM	> 25	9.58 µM	–	> 14.3 µM	9.17 µM	> 25 µM	6.22 µM	13.3	5.79	4.84	7.9	8.62	4.68	–	7.81	3.53
CCN(CC)c1cc(/C=C/c2ccc(OC)c(OC)c2)nc2cc(F)c(F)cc12	6.2 µM	11.4	37.7	92.9 µM	> 100	–	11	> 100 µM	4.01 µM	> 100 µM	1.95 µM	3.15	7.24	10.4	27	20.3	–	3.18	> 100	1.8
CCN(CC)CCCNc1cccc2c(SCc3ccccc3)ccnc12	4.98 µM	3.33	–	3.13 µM	8.29	4 µM	3	3.46 µM	3.44 µM	3.76 µM	1.92 µM	1.51	–	1.63	2.62	2	2.13	0.179	1.7	1.87
Cc1ccc(C2NC(=S)NC3=C2CCOc2c3ccc3ccccc23)cc1 (stereo not drawn)	–	> 100	–	> 100 µM	> 100	7.73 µM	> 100	–	> 100 µM	> 100 µM	–	96	–	> 100	29.4	> 100	2.98	> 100	–	4.83
CC[C@H]1CN2CCc3cc(OC)c(OC)cc3[C@@H]2C[C@@H]1C[C@H]1NCCc2cc(O)c(OC)cc21	0.0461 µM and 0.0583 µM	–	0.0134	0.0648 µM and < 0.0237 µM and 0.0511 µM	–	0.0795 µM and 0.355 µM and 0.265 µM	–	0.0585 µM and < 0.0212 µM and 0.19 µM	0.0518 µM and 0.0717 µM	0.0751 µM and 0.503 µM	0.0165 µM and 0.025 µM	–	0.00437	–	–	–	–	–	–	–
CC(C)CCOc1ccc(-c2n[nH]c(C(F)(F)F)c2-c2cncc(C#N)c2)c(O)c1	6.64 µM	> 100	8.98	16.7 µM	> 100	6.56 µM	–	> 100 µM	6.15 µM	> 100 µM	1.75 µM	4.18	2.77	2.8	3.48	3.21	1.85	–	3.44	1.96
CCn1cc(/C=C/C(C)c2cn(CC)c(=O)[nH]c2=O)c(=O)[nH]c1=O (stereo not drawn)	–	> 100	> 100	> 100 µM	> 100	> 100 µM	> 100	> 100 µM	> 100 µM	> 100 µM	–	–	–	–	–	–	–	–	–	–
COc1cc2c(cc1OC)-c1cc3cc(OC)c(OC)cc3n1CC2	50.6 µM	> 100	–	–	> 100	72.6 µM	> 100	> 100 µM	–	> 100 µM	–	–	–	–	–	–	–	–	–	–
O=C(OCc1ccccc1)N1CCN(/[N+]([O-])=N/Oc2ccc([N+](=O)[O-])cc2[N+](=O)[O-])CC1	–	23.9	–	7.11 µM	–	–	–	> 100 µM	56.5 µM	67.6 µM	–	6.28	–	2.81	–	6.43	–	–	3.79	29.2
CN(C)c1ccc(N=Cc2c([O-])ccc3ccccc23)cc1.[C-]#[O+].[C-]#[O+].[Ir]	51.5 µM	50.6	30.4	40.7 µM	26.1	41.7 µM	> 100	32.5 µM	–	64.3 µM	22.1 µM	22.5	15.4	19.9	12.2	29.1	20.7	4.76	16.7	–
CCSCC(N)C(=O)O (stereo not drawn)	> 100 µM	> 100	> 100	–	> 100	> 100 µM	> 100	> 100 µM	> 100 µM	> 100 µM	–	–	–	–	–	–	–	–	–	–
CCCCCCCC/C=C/CCCCCCCC1=NCC[N+]1(CCO)CCO	14.2 µM	13	–	13.1 µM	14.9	12.4 µM	4.46	4.38 µM	4.2 µM	18.9 µM	2.21 µM	3.25	–	3.7	3.87	4.98	3.19	1.6	1.82	1.73
Brc1ccc(-c2nnc(-c3nn(-c4ccccc4)c4nc5ccccc5nc34)o2)cc1	–	> 100	> 100	> 100 µM	> 100	–	> 100	> 100 µM	> 100 µM	> 100 µM	–	–	–	–	–	–	–	–	–	–
